PMC11643612, “Insights into the Metabolism, Disposition, and Quantitative Profile of mGlu5 NAM AE90015 with Metabolite Identification and a Novel Integration Method” (Molecules, 2024)

Experiments:
[1] = system: mGlu7; conditions: cited from earlier work
[2] = in vivo rat oral dose study: metabolism, excretion and disposition (plasma, tissues, urine, bile; UV/mass integration)
Method: The in vivo rat studies were performed following the administration of a 30 mg/kg dose of AE90015. Plasma, urine, and tissue samples were collected from two rats in a metabolic cage, and bile samples were collected from two bile duct-cannulated rats. The urine and bile samples were collected from 0 to 24 h post-administration. The tissues and plasma samples were collected at 24 h post-administration. This study was carried out to explore all metabolites, particularly the phase II metabolites, and to identify the metabolites being excreted and understand their excretion pathways. Additionally, determining whether AE90015 itself is directly cleared through urine and bile is crucial for explaining its pharmacokinetic clearance value in rats.
For quantification, a photodiode array detector connected to UPLC in parallel to the LTQ-Obitrap mass spectrometer, detecting at 260 nm absorption, and combined with mass response was used to quantitatively measure, sometimes with compromised accuracy, the metabolites and AE90015 in all of the samples. For well-separated metabolites in the liquid chromatogram, their UV 260 nm absorption peak integration represented their molar response. When the metabolites’ UV peaks overlap with each other, UV integration is not feasible, but the integration of extracted metabolite mass is much easier. […] It was assumed that each metabolite’s UV integration-to-mass integration ratio is equal, allowing for a good approximation within the same category of metabolites. This assumption was validated by many of the metabolites measured in this study and previous studies. When no UV integration is available, multiplying the mass integration by the […] yielded in the UV integration.
The distribution of normalized integration values for the parent drug AE90015 and its metabolites in plasma, urine, bile, and tissues, including liver, brain, and kidney, is summarized in Table 1. […] In this experiment, all amounts of AE90015 and its metabolites in the plasma, urine, and bile samples were obtained from UV responses, which were adjusted to their total volume in the rat. For the liver, brain, and kidney tissues, these amounts were normalized to tissue weight. The sample dilution factors used in the analysis were also converted back.
The values in Table 1 represent the relative molar amounts of each metabolite of AE90015 remaining in the plasma and tissues or excreted in urine or bile 24 h post-dose. These values were derived either directly from UV 260 nm integration or from mass response integration, multiplied by the UV/mass ratio for each metabolite category, and further adjusted to plasma, urine volume, or tissue weight. The details of the calculation methods are provided in Section 3.
Two rats weighing 0.266 and 0.252 kg received 30 mg/kg oral doses of AE90015, formulated with hydroxypropyl-beta-cyclodextrin, for the bile collection study, which was carried out for 0–24 h, and a total of 33.6 mL of bile was pooled together from the 2 rats. The two rats used for the bile collection study underwent bile duct cannulation surgery 2 days before the AE90015 dosing and bile collection. Before the surgery, the rats were anesthetized with ketamine (43 mg/kg body weight) and xylazine (8.7 mg/kg body weight). After surgical skin preparation, two catheters (intestinal and biliary) were passed subcutaneously from the dorsal scapular region into the abdomen. Through ventral midline abdominal incision, the bile duct was isolated and ligated, and the biliary catheter was inserted into the bile duct and secured. The intestinal catheter tip was placed into the duodenum just distal to the entry point of the bile duct and secured by the placement of a purse string suture. […]

[3] = system: mGlu3; conditions: cited from earlier work
[4] = rat PK, in-house experiment; conditions: in vivo
[5] = system: 79 other targets; conditions: cited from earlier work
[6] = system: mGlu1; conditions: cited from earlier work
[7] = system: mGlu4; conditions: cited from earlier work
[8] = system: human mGlu5 receptor; parameters: method as in PMID 34469715; conditions: NAM; cited from earlier work
[9] = system: mGlu2; conditions: cited from earlier work
[10] = rats (n = 2), 24 h after 30 mg/kg oral, % of all AE90015-related material

Cc1cncc(C(=O)NC23CC4CC(CC(NC(=O)c5ccccn5)(C4)C2)C3)n1 [AE90015]
efficacy or affinity for mGlu7 [1]: no significant efficacy or affinity | Excrete from Bile, normalized relative molar amount ([2]; bile duct-cannulated rats (n = 2), bile 0-24 h after 30 mg/kg oral, % of all AE90015-related material): 0.39% | share of total clearance by mono-oxidation (primary clearance pathway) ([2]; rat, 30 mg/kg oral, 24 h): 96% | direct excretion via renal and bile routes ([2]; rat, 30 mg/kg oral, 24 h, unchanged parent): 0.5% | Remain in Brain, normalized relative molar amount [2, 10]: 0.66% | Remain in Kidney, normalized relative molar amount [2, 10]: 0.16% | Remain in Liver, normalized relative molar amount [2, 10]: 0.98% | Remain in Plasma, normalized relative molar amount [2, 10]: 1.47% | Excrete from Urine, normalized relative molar amount ([2]; rats (n = 2), urine 0-24 h after 30 mg/kg oral, % of all AE90015-related material): 0.10% | efficacy or affinity for mGlu3 [3]: no significant efficacy or affinity | clearance [4]: 38 mL/min/kg | selectivity for mGlu5, preference compared to the 79 other targets tested [5]: over 1000 fold | efficacy or affinity for mGlu1 [6]: no significant efficacy or affinity | efficacy or affinity for mGlu4 [7]: no significant efficacy or affinity | affinity [8]: 18.5 nM | efficacy or affinity for mGlu2 [9]: no significant efficacy or affinity
